≈ marks a conversion by molar mass, not a printed value. Where two headings read alike, the source gives them in different places.
Assays:
[1] = 72 hr cytotoxicity assay; in vitro antitumor activity; type: cell-based; conditions: for in vitro antitumor activity: in words, compared with vinblastine
Protocol: The 18'(S)-epimer was tested in vitro for antitumor activity in comparison with the 18'(R)-epimer and vinblastine. IC50 's were determined in a 72 hr cytotoxicity assay.

[2] = cited from earlier work
[3] = 72 hr cytotoxicity assay, in vitro, cell line not given, read-out: IC50
[4] = compared with vinblastine and vincristine (Fellous et al., 1989)

CC[C@]12C=CCN3CC[C@@]4(c5cc([C@]6(C(=O)OC)C[C@@H]7CCCN(Cc8c6[nH]c6ccccc86)C7)c(OC)cc5N(C)[C@H]4[C@@](O)(C(=O)OC)[C@@H]1OC(C)=O)[C@@H]32 [18'(R)-Dihydrodesethylnavelbine, (+)-18'R-4'-Desethyl-4'-deshydroxy-7'-norvinblastine]
IC50 ([1]; 72 hr cytotoxicity assay, in vitro, cell line not given): no activity | in vitro antitumor activity [1]: inactive

CC[C@]12C=CCN3CC[C@@]4(c5cc([C@@]6(C(=O)OC)C[C@@H]7CCCN(Cc8c6[nH]c6ccccc86)C7)c(OC)cc5N(C)[C@H]4[C@@](O)(C(=O)OC)[C@@H]1OC(C)=O)[C@@H]32 [18'(S)-Dihydrodesethylnavelbine, (+)-18'S-4'-Desethyl-4'-deshydroxy-7'-norvinblastine]
IC50 ([1]; 72 h): 0.5 ng/mL (≈ 0.664 nM) | in vitro antitumor activity [1]: comparable to vinblastine

CCC1=C[C@@H]2CN(C1)Cc1c([nH]c3ccccc13)[C@@](C(=O)OC)(c1cc3c(cc1OC)N(C)[C@H]1[C@@](O)(C(=O)OC)[C@H](OC(C)=O)[C@]4(CC)C=CCN5CC[C@]31[C@@H]54)C2 [Navelbine]
IC50 [1, 3]: 5 ng/mL (≈ 6.42 nM) | cytotoxicity ([2]; compared with Vinblastine): decreased cytotoxicity compared with Vinblastine | antitumor activity [2, 4]: broader antitumor activity | neurotoxicity and other side effects [2, 4]: lower neurotoxicity and other side effects

CC[C@]1(O)C[C@@H]2CN(CCc3c([nH]c4ccccc34)[C@@](C(=O)OC)(c3cc4c(cc3OC)N(C)[C@H]3[C@@](O)(C(=O)OC)[C@H](OC(C)=O)[C@]5(CC)C=CCN6CC[C@]43[C@@H]65)C2)C1 [Vinblastine]
IC50 [1, 3]: 0.5 ng/mL (≈ 0.617 nM)

Source: US5220016A, “Synthesis of navelbine analogs” (priority 1991, dated 1993)
